Assay results taken from publication PMC5025650, “Comparison of research methods for functional characterization of insect olfactory receptors” (Scientific Reports, 2016).

Columns and labels:
HassOR13/HassOrco [1] = biological target: T1, HassOR13/HassOrco (Helicoverpa assulta, UniProt A0A0B4ZYC6); assay: two-electrode voltage clamp, Xenopus oocytes; assay type: cell-based; settings: weak agonist; with HassOrco; holding potential −80 mV; pH 7.6
T1 construct: gene OR13; called heterodimer; with Odorant receptor coreceptor
T1 sequence (A0A0B4ZYC6 1-425): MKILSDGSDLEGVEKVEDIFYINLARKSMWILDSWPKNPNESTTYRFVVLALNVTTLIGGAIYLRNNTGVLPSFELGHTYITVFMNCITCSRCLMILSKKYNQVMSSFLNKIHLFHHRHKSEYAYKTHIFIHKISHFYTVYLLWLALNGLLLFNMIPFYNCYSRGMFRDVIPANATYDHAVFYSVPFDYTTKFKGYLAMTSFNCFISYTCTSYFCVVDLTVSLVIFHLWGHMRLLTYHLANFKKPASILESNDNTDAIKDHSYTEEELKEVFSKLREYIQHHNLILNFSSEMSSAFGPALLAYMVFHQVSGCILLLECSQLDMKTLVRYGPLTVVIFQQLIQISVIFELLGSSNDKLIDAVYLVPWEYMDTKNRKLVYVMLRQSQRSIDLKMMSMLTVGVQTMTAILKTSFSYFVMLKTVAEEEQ
T1 sequence (A7UGE1 1-473 partner): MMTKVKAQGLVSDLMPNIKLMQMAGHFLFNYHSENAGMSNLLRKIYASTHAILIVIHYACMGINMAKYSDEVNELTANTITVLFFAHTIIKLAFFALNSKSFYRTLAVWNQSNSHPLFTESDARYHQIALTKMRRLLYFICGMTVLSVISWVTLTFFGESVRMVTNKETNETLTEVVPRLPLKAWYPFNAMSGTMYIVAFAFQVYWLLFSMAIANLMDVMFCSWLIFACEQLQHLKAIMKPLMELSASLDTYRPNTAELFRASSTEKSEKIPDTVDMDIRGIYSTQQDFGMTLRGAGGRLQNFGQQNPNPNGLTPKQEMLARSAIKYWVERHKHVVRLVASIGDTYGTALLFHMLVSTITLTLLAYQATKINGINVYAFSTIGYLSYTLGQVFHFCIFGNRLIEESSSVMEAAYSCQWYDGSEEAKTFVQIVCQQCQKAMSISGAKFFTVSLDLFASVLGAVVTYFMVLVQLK

HassOR13/HassOrco [2] = biological target: T1, HassOR13/HassOrco; assay: two-electrode voltage clamp, Xenopus oocytes; assay type: cell-based

Compound	current at 10^-4 M (HassOR13/HassOrco [1]) [nA]	EC50 (HassOR13/HassOrco [2]) [µM]
CCCC/C=C\CCCCCCCC=O [Z9-14:Ald, (Z)-9-tetradecenal]	31 ± 8	
CCCC/C=C\CCCCCCCCCC=O [Z11-16:Ald, (Z)-11-hexadecenal]		68.4
CCCCCC/C=C\CCCCCCCC=O [Z9-16:Ald, (Z)-9-hexadecenal]	72 ± 13	
